Assay [1] has as its system rat SCI model. Kind of assay: BBB locomotor rating, rat SCI model. Format: in vivo. From the text: Sprague-Dawley female rats (225-250 g weight) were purchased (Harlan laboratories, Durham, N.C.) for induction of SCI. All rats were given water and food pellets ad libitum and maintained in accordance with the ‘Guide for the Care and Use of Laboratory Animals’ of the US Department of Health and Human Services (National Institutes of Health, Bethesda, Md., USA). The inventors have used a clinically relevant weight-drop device for the induction of SCI in rats as described earlier (Gruner, 1992). Briefly, rats were anesthetized by intraperitoneal (i.p.) administration of ketamine (80 mg/kg) plus xylazine (10 mg/kg) followed by laminectomy at T12. While the spine was immobilized with a stereotactic device, injury (30 g/cm force) was induced by dropping a weight of 5 gm from a height of 6 cm onto an impounder gently placed on the spinal cord. Sham operated animals underwent laminectomy only. Upon recovery from anesthesia, animals were evaluated neurologically and monitored for food and water intake. However, no prophylactic antibiotics or analgesics were used in order to avoid their possible interactions with the experimental therapy of SCI.
Assessment of neurological (functional) recovery was performed by an open-field test using the 21-point Basso, Beattie, Bresnahan (BBB) locomotor rating scale (Basso et al., 1996) until Day 15 post-SCI. […]

Assay [2] relates to ERK1/2. Kind of assay: ERK1/2 activation at the lesion epicenter following SCI. Type of assay: in vivo, rat.
Experimental: The protein concentration of samples was determined with the detergent compatible protein assay reagent (Bio-Rad Laboratories, CA) using bovine serum albumin (BSA) as the standard. Sample was boiled for 3 min with 0.1 volumes of 10% β-mercaptoethanol and 0.5% bromophenol blue mix. Fifty μg of total cellular protein was resolved by electrophoresis on 8 or 12% polyacrylamide gels, electro-transferred to polyvinylidene difluoride (PVDF) filter and blocked with Tween 20 containing Tris-buffered saline (TBST; 10 mM Trizma base-pH 7.4, 1% Tween 20, and 150 mM NaCl) with 5% skim milk. After incubation with antiserum against iNOS (BD PharMingen, CA), rat GalT-2 (Abjent Inc., CA), H-Ras (Upstate Biotechnology, CA), GFAP (Santa Cruz Biotech, CA), or phospho-specific ERK1/2 (Cell signaling Tech Inc., MA), or pIκ-B (Signal Transduction), in PVDF buffer for 2 h at room temperature, the filters were washed 3 times with TBST buffer and then incubated with horseradish peroxidase conjugated anti-rabbit or mouse IgG for 1 h. The membranes were detected by autoradiography using ECL-plus (Amersham Pharmacia Biotech) after washing with TBST buffer.
For assay [3], the system named is rat aortic vascular smooth muscle cells. The conditions noted are these: cited from earlier work.
Assay [4] relates to IL-1β. The experiment in a line: IL-1β expression at the lesion epicenter following SCI.
Assay [5] concerns GFAP. Kind of assay: GFAP expression (reactive astrogliosis) at the lesion epicenter following SCI.
Assay [6] relates to PI-3K. Kind of assay: PI-3 kinase activity assay. Format: cell-based, rat. The conditions noted are these: exogenous lipid. As for the experimental part:
Cells after stimulation in serum-free DMEM/F-12 were lysed with ice-cold lysis buffer containing 1% (vol/vol) NP-40,100 mM NaCl, 20 mM Tris (pH 7.4), 10 mM iodoacetamide, 10 mM NaF, 1 mM sodium orthovanadate, 1 mM […], 1 μg/ml leupeptin, 1 μg/ml antipain, 1 mg/ml aprotinin, and 1 μg/ml pepstatin A. Lysates were incubated at 4° C. for 15 min, followed by centrifugation at 13,000 g for 15 min. The supernatant was pre-cleared with protein G-Sepharose beads (Pharmacia Biotech) for 1 h at 4° C. followed by the addition of 1 μg/ml p85α monoclonal antibody. After 2 h of incubation at 4° C., protein G-Sepharose beads were added and the resulting mixture was further incubated for 1 h at 4° C. The immunoprecipitates were washed twice with lysis buffer, once with phosphate-buffered saline (PBS), once with 0.5 M LiCl and 100 mM Tris (pH 7.6), once in water, and once in kinase buffer (5 mM MgCl2, 0.25 mM EDTA, 20 mM HEPES, pH 7.4). PI-3kinase activity was determined as already described (Ward et al., 1992; Pahan et al., 1999) using a lipid mixture of 100 μl of 0.1 mg/ml PI and 0.1 mg/ml phosphatidylserine dispersed by sonication in 20 mM HEPES (pH 7.0) and 1 mM EDTA. The reaction was initiated by the addition of 20 of [γ-32P] […]

We go through two molecules from patent US20110059909A1, “METHODS FOR TREATING INFLAMMATORY DISORDERS” (priority 2004, published 2011).

“Also recorded” adds a separate entry of the source.

`CCCCCCCCCC(=O)NC(CN1CCOCC1)C(O)c1ccccc1.Cl` [PDMP, D-threo-1-Phenyl-2-decanoylamino-3-morpholino-1-propanol.HCl]: the BBB score in assay [1] (Day 3 post-SCI, PDMP 20 mg/kg i.p. at 10 min, 24 h, 48 h, 72 h) is reported as 6.9±0.2; in assay [1] (Day 15 post-SCI, PDMP treatment stopped at Day 3), 13.9±0.1. Further, the “Activated ERK1/2, double immunofluorescence” value in assay [2] (24 h following injury) was “significantly attenuated”. For the same molecule, in assay [2] (PDMP 20 mg/kg post-SCI), the “Chronic ERK1/2 activation (immunoblot, pERK/ERK)” value is reported as “effectively attenuates”. In addition, in assay [3], the “IL-1β stimulated nitric oxide release” value is reported as “increased”. Further, the “IL-1β mRNA levels” value in assay [4] (4 h post-SCI) was “markedly inhibited”. In addition, the “IL-1β protein levels, immunofluorescence” value in assay [4] (post-SCI (sections extracted 4 h)) is given as “significantly suppressed”. Moreover, the “GFAP, double immunofluorescence” value in assay [5] (24 h post-SCI) is listed as “significantly reduced; also recorded: significantly attenuated”. Also, the “GFAP mRNA and protein expression” value in assay [5] (PDMP 20 mg/kg post-SCI) was “effectively attenuated”.

Turning to Lactosylceramide [LacCer], the “Reversal of DMS-mediated inhibition of PI-3K activation” value in assay [6] was “could not reverse”.
